In PMC6337391 (Molecules, 2019):

Molecular target: T1, Aβ40 (Homo sapiens, UniProt P05067)
T1 construct: Amyloid peptide Aβ40 was purchased from AnaSpec Co; purchased AnaSpec Co. (Fremont, CA, USA)
Test: Circular dichroism study of Aβ40 aggregation
Conditions: 50 µM compound, 50 µM Aβ40 (1:1), PB pH 7.33, 33 °C, 40 days
From the text: The pathogenesis of Alzheimer’s disease (AD) is widely associated with the aggregation of β-amyloid peptide (Aβ) either to soluble oligomers or to higher-order polymeric insoluble fibrils. As a result, one of the main therapeutic strategies against AD targets the aggregation process of Aβ, and a great number of small molecules are being investigated for their potential to intervene in the assembly of Aβ and inhibit its neurotoxicity in vitro and in vivo [64]. Circular dichroism (CD) spectroscopy is commonly used to probe the secondary structure of polypeptides and to monitor conformational changes and interactions of polypeptides with small molecules. The typical aggregation process of Aβ produces characteristic CD spectra over time that reflect the conformational changes that occur as the random coil monomers are converted into β-sheet oligomers, and then gradually to larger β-sheet formations that finally produce amyloid fibrils. CD is, therefore, a valuable tool to monitor the aggregation process of Aβ and to study the effect of potential aggregation inhibitors. To further investigate the pleiotropic effects of chalcones against AD, selected compounds from our library, were subjected to CD studies in order to evaluate their potential to interfere with the aggregation process of Aβ40. […] The aggregation spectra of plain Aβ40 show at day 0 the typical random coil peak (negative maximum at 198 nm) the intensity of which gradually decreases as the peptide forms β–sheet structures (negative maximum at 222 nm, day 15) that further aggregate to higher order polymeric fibrils. The precipitation of the insoluble fibrils from solution eventually results in the loss of CD signal (days 30 and 40). […] In view of the above results, chalcone derivatives bearing a three-carbon chain linker, specifically c2, c3, and c4, were subsequently studied in order to assess the effect of further derivatization and the presence of the chalcone moiety in the structure. […] Overall, our CD study identified three new structures capable of interfering with the aggregation process of Aβ, out of which compounds c2 and c4 display additional protective actions against AD and add to the pleiotropic profile of the chalcone derivatives.
Preparation of Aβ stocks and solutions. Amyloid peptide Aβ40 was purchased from AnaSpec Co. (Fremont, CA, USA) (>95% pure). Aβ40 was gently dissolved without vortexing in Type 1 (Milli-Q) water to a final concentration of 100 μM. Solutions of Aβ in phosphate buffer (PB, 10 mM, pH 7.33) were prepared by adding equal volumes of PB to aliquots of the aqueous solution stock to achieve final concentration of 50 µM. The proper amount of the compounds c2, c3, c4, di, dii, and dvi were added to the Aβ solutions to achieve concentration of 50 μM. The secondary structural changes of Aβ were monitored for 40 days by CD. During this period, the amyloid peptide solutions were kept at an incubator at 33 °C under quiescent conditions.
Circular dichroism measurements. CD spectra were recorded on a JASCO J-715 spectropolarimeter (Jasco Co., Tokyo, Japan), at 33 °C in the range of 190–260 nm with a 1 mm path length quartz cuvette. Each spectrum was the average of three scans at a speed of 100 nm·min^−1 and a resolution of 0.5 nm. Three independent experiments were run for each condition and in each case solutions of plain Aβ were run as control (Figure 8). The analysis of the CD data was performed using the OriginPro 9 program.

T1 sequence (P05067 672-711 limits assumed): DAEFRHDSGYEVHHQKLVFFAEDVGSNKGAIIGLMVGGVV

Structure (SMILES)	effect on the aggregation process of Aβ40 (CD spectra)
CC(=O)c1ccc(OCCOc2ccc(C(C)=O)cc2)cc1 [di, 1,1′-((ethane-1,2-diylbis(oxy))bis(4,1-phenylene))diethanone]	did not significantly change the fibrillization course of Aβ40
CC(=O)c1ccc(OCCCCCCCOc2ccc(C(C)=O)cc2)cc1 [dvi, 1,1′-((heptane-1,7-diylbis(oxy))bis-(4,1-phenylene)) diethanone]	did not significantly change the fibrillization course of Aβ40
